Experimental data reported in US5948808A, “Indole-3-carbinol, diindolylmethane and substituted analogs as antiestrogens” (The Texas A&M University System, priority 1997, dated 1999).
Like-named read-outs stand apart in the source and are kept apart here.

Columns and labels:
MCF-7 cells = assay: Effect of compounds on MCF-7 proliferation (E2-induced growth); format: cell-based; conditions: Homo sapiens, MCF7, 144 h, with E2 (1 nM), 6 days
Method: MCF-7 cells (50,000 per well) were grown in six-well plates in DME-F12 medium as described in Liu, et al., Mol. Cell Endocrinol, 87:19-28, 1992. The cells were given fresh medium plus the compounds being tested every other day. After 6 days of treatment, the cells were harvested and counted with a Coulter counter (Coulter Electronics, Hialeah, Fla.) as described by Liu et al., J. Natl. Cancer Inst., 86. 1758-1765, 1994; Tiwari et al., J. Natl, Cancer Inst. 86, 126-131, 1994. In some cases, 17-β-estradiol (E2) (1×10^-9 M) was also added in combination with the IC3 or DIM analogs.
__________________________________________________________________________
EFFECTS OF DIFFERENT CONCENTRATIONS OF I3C
AND SUBSTITUTED ANALOGS ON THE GROWTH
OF MCF-7 CELLS IN THE PRESENCF OF E2
% of E2-Induced Response (Conc. of I3C Analogs)
EFFECTS OF DIFFERENT CONCENTRATIONS OF DIM
AND SUBSTITUTED ANALOGS ON THE
GROWTH OF MCF-7 CELLS IN THE PRESENCE OF E2
% of E2-Induced Response (Conc. of DIM Analogs)

mammary tumors = conditions: oral, 20 hours prior to DMBA; cited from earlier work
[1] = system: estrogen-regulated tumors; conditions: cited from earlier work
[2] = system: DMBA-induced mammary tumor; conditions: dietary I3C; 20% Brussels sprouts; cited from earlier work
[3] = system: DMBA-induced mammary tumors; assay: Tumor growth in DMBA-induced mammary carcinoma model; format: in vivo, Sprague-Dawley rats; conditions: 10 treatments by gavage 5 mg/kg every other day, sacrificed day 21; mean ± standard error
EROD = EROD in rats of the DMBA-induced mammary carcinoma model; format: in vivo, Sprague-Dawley rats; conditions: 10 treatments by gavage 5 mg/kg every other day, sacrificed day 21; mean ± standard error
[4] = Toxic endpoints (organ weights) in rats of the DMBA-induced mammary carcinoma model; format: in vivo, Sprague-Dawley rats; conditions: 10 treatments by gavage 5 mg/kg every other day, sacrificed day 21, mean ± standard error; for Uterine Wet Weight: control 0.182 ± 0.016; for Liver Weight: control 4.07 ± 0.19
[5] = read-out: % of E2-Induced Response (Conc. of I3C Analogs)
[6] = read-out: % of E2-Induced Response (Conc. of DIM Analogs)

| Structure (SMILES) | activity at 0.1 µM (MCF-7 cells; [5]) [%] | activity at 1 µM (MCF-7 cells; [5]) [%] | activity at 10 µM (MCF-7 cells; [5]) [%] | activity at 50 µM (MCF-7 cells; [5]) [%] | activity at 100 µM (MCF-7 cells; [5]) [%] | activity at 0.01 µM (MCF-7 cells; [6]) [%] | activity at 0.1 µM (MCF-7 cells; [6]) [%] | activity at 1 µM (MCF-7 cells; [6]) [%] | activity at 5 µM (MCF-7 cells; [6]) [%] | activity at 10 µM (MCF-7 cells; [6]) [%] | also measured |
| --- | --- | --- | --- | --- | --- | --- | --- | --- | --- | --- | --- |
| OCc1c[nH]c2ccccc12 [I3C, indole 3-carbinol, reference compound] | 100 ± 5.7 | 96.3 ± 3.23 | 83.9 ± 2.46 | 36.9 ± 0.65 | 8.15 ± 1 |  |  |  |  |  | occurrence of mammary tumors (in words) (mammary tumors): inhibited the occurrence of mammary tumors; formation or growth of estrogen-regulated tumors (in words) ([1]; rodent mammary, endometrium and uterus): inhibit formation or growth of estrogen-regulated tumors; mammary carcinogenesis (in words) ([1]; rodent models): inhibits mammary carcinogenesis in rodent models; DMBA-induced mammary tumor formation and progression (in words) [2]: inhibited DMBA-induced mammary tumor formation and progression |
| Clc1ccc2[nH]cc(Cc3c[nH]c4ccc(Cl)cc34)c2c1 [5-Chloro-DIM, 5,5'-dichloro-diindolylmethane] |  |  |  |  |  | 98.4 ± 11.2 | 98.3 ± 8.34 | 87.3 ± 5.98 | 0.75 ± 0.1 | 0.99 ± 0.27 |  |
| Brc1ccc2[nH]cc(Cc3c[nH]c4ccc(Br)cc34)c2c1 [5-Bromo-DIM, 5,5'-dibromo-diindolylmethane] |  |  |  |  |  | 99.03 ± 0.49 | 106 ± 3.38 | 75 ± 1.35 | 9.92 ± 0.58 | 0.3 ± 0.04 |  |
| Cn1cc(CO)c2ccccc21 [N-Methyl-I3C, N-methyl-indole-3-carbinol] | 95.6 ± 4.26 | 96.2 ± 1.66 | 47.8 ± 2.13 | 14.4 ± 0.9 | 3.91 ± 0.64 |  |  |  |  |  |  |
| Cc1c(CO)c2ccccc2n1C [1,2-Dimethyl-I3C] | 98 ± 5.68 | 94.4 ± 7.73 | 65.9 ± 2.86 | 0.35 ± 0.24 | 0.42 ± 0.14 |  |  |  |  |  |  |
| O=[N+]([O-])c1ccc2[nH]cc(CO)c2c1 [5-Nitro-I3C] | 94.7 ± 2.05 | 92.7 ± 3.89 | 44.2 ± 3.34 | 1.71 ± 0.06 | 0.39 ± 0.06 |  |  |  |  |  |  |
| Fc1ccc2[nH]cc(Cc3c[nH]c4ccc(F)cc34)c2c1 [5-Fluoro-DIM, 5,5'-difluoro-diindolylmethane] |  |  |  |  |  | 90.3 ± 2.5 | 103 ± 2.63 | 77.1 ± 3.51 | 35.7 ± 5.13 | 8.46 ± 1.17 | Tumor Volume [3]: 35.8 ± 16.6 % Control; Tumor Weight [3]: 45.0 ± 20.0 % Control; EROD (EROD): 157.6 ± 22.1 % Control; Uterine Wet Weight [4]: 0.208 ± 0.044 % body weight; Liver Weight [4]: 4.30 ± 0.29 % body weight |
| c1ccc2c(Cc3c[nH]c4ccccc34)c[nH]c2c1 [DIM, 3,3'diindolylmethane, reference compound] |  |  |  |  |  | 107 ± 8.43 | 97.3 ± 3.56 | 77 ± 5.16 | 22.5 ± 2.47 | 6.84 ± 0.71 | Tumor Volume [3]: 19.9 ± 5.8 % Control; Tumor Weight [3]: 23.7 ± 6.0 % Control; EROD (EROD): 106.1 ± 22.4 % Control; Uterine Wet Weight [4]: 0.184 ± 0.027 % body weight; Liver Weight [4]: 3.87 ± 0.22 % body weight; occurrence of mammary tumors (in words) (mammary tumors): inhibited the occurrence of mammary tumors |
| Cn1cc(Cc2cn(C)c3ccccc23)c2ccccc21 [N-Methyl-DIM, N,N'-dimethyl-diindolylmethane] |  |  |  |  |  | 82.8 ± 10.8 | 96.4 ± 2.94 | 78.5 ± 3.03 | 3.92 ± 0.49 | 0.85 ± 0.12 |  |
| Cc1ccc2[nH]cc(CO)c2c1 [5-Methyl-I3C, 5-methyl-indole-3-carbinol] | 87.8 ± 11.1 | 81.6 ± 10.8 | 53 ± 4.24 | 0.87 ± 0.11 | 0.57 ± 0.2 |  |  |  |  |  |  |
| COc1ccc2[nH]cc(Cc3c[nH]c4ccc(OC)cc34)c2c1 [5-Methoxy-DIM, 5,5'-dimethoxy-diindolylmethane] |  |  |  |  |  | 87.2 ± 3.52 | 89.4 ± 3.12 | 69.4 ± 3.95 | 37.1 ± 4.52 | 11.4 ± 1.63 | Tumor Volume [3]: 22.1 ± 4.4 % Control; Tumor Weight [3]: 22.1 ± 4.4 % Control; EROD (EROD): 151.2 ± 43.4 % Control; Uterine Wet Weight [4]: 0.224 ± 0.034 % body weight; Liver Weight [4]: 4.16 ± 0.23 % body weight |
| OCc1c[nH]c2ccc(Cl)cc12 [5-Chloro-I3C, 5-chloro-indole-3-carbinol] | 94 ± 11.2 | 92.4 ± 3.14 | 82.2 ± 4.55 | 29.8 ± 5.98 | 1.02 ± 0.22 |  |  |  |  |  |  |
| OCc1c[nH]c2ccc(Br)cc12 [5-Bromo-I3C, 5-bromo-indole-3-carbinol] | 96.3 ± 6.97 | 97.3 ± 6.33 | 94.4 ± 2.47 | 59.6 ± 1.05 | 14.9 ± 0.72 |  |  |  |  |  |  |
| COc1ccc2[nH]cc(CO)c2c1 [5-Methoxy-I3C, 5-methoxy-indole-3-carbinol] | 87.6 ± 5.4 | 78.4 ± 11.9 | 58.9 ± 7.96 | 2.97 ± 0.2 | 0.61 ± 0.14 |  |  |  |  |  |  |
